These results are taken from patent US11241455B2, “Methods of treating disease by metabolic control of T-cell differentiation” (The J. David Gladstone Institutes, a testamentary trust …, priority 2016, dated 2022).

For data set [1], the system named is differentiating iTreg cells. Description: iTreg differentiation of CD4 naïve T cells (FOXP3-GFP reporter or intracellular staining of FOXP3). The settings on record: for reversal of the enhancing effect of AOA on iTreg cell differentiation: in the presence of AOA, day 5, 0.5 mM α-KG, 0.125 mM 2-HG (0.25 mM in FIG. 2g), 0.5 mM succinate, 50 μM fumarate, 0.5 mM malate, 0.5 mM citrate. Type of data set: cell-based, mouse. On the procedure: CD4 naïve T cells (CD4+CD25-CD62^highCD44^low) were obtained from interleukin (IL)-17F-red fluorescent protein (RFP)/FOXP3-green fluorescent protein (GFP) mice, which were characterized previously, or wild-type C57/BL6 mice, by cell sorting. 0.4 million cells were plated into 48 wells coated with anti-mouse CD3 (clone 145-2C11, eBioscience) […] and anti-mouse CD28 (clone 37.51, eBioscience) (1 μg/ml). The differentiation media for these naïve T cells was as follows: 0.5 ng/ml (or indicated) transforming growth factor (TGF) β, 200 U/ml mouse IL-2, 2 μg/ml anti-interferon (IFN) γ and 2 μg/ml anti-mouse IL4 for differentiation into iTreg cells; and 2.5 ng/ml TGFβ, 10 ng/ml mouse IL-1β, 10 ng/ml mouse IL-6, 10 ng/ml mouse IL-23, 2 μg/ml anti-mouse IFNγ, and anti-mouse IL-4 for differentiating into TH17 cells. The cells were supplemented with new medium at day 4. In cases in which small-molecule compounds were present, the fresh medium containing the same concentration of compounds was used. When necessary, the individual metabolite was added into the T-cell culture 6 hours later after initial cell plating. […]

Data set [2] deals with FOXP3 promoter and its intronic CpG island. As to the kind of experiment: Methylation analysis by bisulfite sequencing, T cells under iTreg condition. The format is cell-based, mouse. The following applies: iTreg condition (day 5); 0.5 mM dimethyl R-2-HG or AOA; male mice. On the procedure: (§1) The method is essentially the same as described previously (Kim, et al. J Exp Med 204 (7), 1543-1551 (2007)). Briefly, genomic DNA was purified with Blood & Cell Culture DNA Midi Kit (Qiagen). Bisufite conversion of genomic DNA was performed using Epitect® bisulfite kit (Qiagen), according to the manufacture's instruction. The PCR product was run on 2% agarose, purified and cloned using TOPO® TA Cloning® Kit with PCR®4. Clones are picked for Sanger sequencing.

Data set [3] has as its system differentiating TH17 cells. As to the kind of experiment: TH17 differentiation of CD4 naïve T cells (IL17F-RFP/FOXP3-GFP reporter or intracellular staining of IL-17 and FOXP3). Type of data set: cell-based, mouse. The following applies: for rescue of the inhibitory effect of AOA on TH17 cell differentiation: in the presence of AOA, day 6, 0.75 mM α-KG, 0.5 mM 2-HG, 0.5 mM succinate, 50 μM fumarate, 0.5 mM malate, 0.5 mM citrate, 1 mM NAC, 1 mM GSH. On the procedure: CD4 naïve T cells (CD4+CD25-CD62^highCD44^low) were obtained from interleukin (IL)-17F-red fluorescent protein (RFP)/FOXP3-green fluorescent protein (GFP) mice, which were characterized previously, or wild-type C57/BL6 mice, by cell sorting. 0.4 million cells were plated into 48 wells coated with anti-mouse CD3 (clone 145-2C11, eBioscience) […] and anti-mouse CD28 (clone 37.51, eBioscience) (1 μg/ml). The differentiation media for these naïve T cells was as follows: 0.5 ng/ml (or indicated) transforming growth factor (TGF) β, 200 U/ml mouse IL-2, 2 μg/ml anti-interferon (IFN) γ and 2 μg/ml anti-mouse IL4 for differentiation into iTreg cells; and 2.5 ng/ml TGFβ, 10 ng/ml mouse IL-1β, 10 ng/ml mouse IL-6, 10 ng/ml mouse IL-23, 2 μg/ml anti-mouse IFNγ, and anti-mouse IL-4 for differentiating into TH17 cells. The cells were supplemented with new medium at day 4. In cases in which small-molecule compounds were present, the fresh medium containing the same concentration of compounds was used. When necessary, the individual metabolite was added into the T-cell culture 6 hours later after initial cell plating. On day 6, the cells were analyzed for IL17F-RFP and FOXP3-GFP or the cells were collected and restimulated for 4-6 hours with PMA, inomycin, and Golgi-stop for intracellular staining in absence of indicated compounds.
To identify small molecules that regulate cell-fate switching of TH17/iTreg cells and to further understand the regulation of the TH17/iTreg balance, 10,000 individual small molecules were phenotypically screened using CD4 naïve T cells from IL-17F-RFP/FOXP3-GFP mice. The naïve T cells were cultured under optimal TH17 differentiation conditions and compounds that could reprogram TH17 differentiation toward iTreg cell fate were identified using the reporter readout. Briefly, after TH17 differentiation for 24 hours, compounds were added to TH17 culture, and the treatment was continued for an additional 5 days before the cells were analyzed for IL17F-RFP and FOXP3-GFP expression by high-throughput fluorescence-activated cell sorting (FACS) (FIG. 5a). […] This effect of reprogrammed differentiation was further confirmed by intracellular immunostaining of IL-17 and FOXP3 (FIG. 1a).

In data set [4] the test system is FOXP3 promoter and its intronic CpG island. As to the kind of experiment: Methylation analysis by bisulfite sequencing, T cells under TH17 condition. The settings on record: 0.5 mM dimethyl R-2-HG (day 4) or AOA (day 6), male mice. The format is cell-based, mouse. On the procedure: as §1
Data set [5] relates to FOXP3 mRNA in iTreg cells. Description: mRNA expression analysis by qRT-PCR in iTreg cells. Type of data set: cell-based, mouse. The settings on record: normalized to β-actin. On the procedure: (§2) At the end of differentiation (day 6), T cells were re-stimulated with plate-coated anti-CD3 and anti-CD28 for 5 hours in the absence of any small-molecule compounds or metabolites. Quantitative reverse transcriptase polymerase chain reaction (qRT-PCR) was performed to evaluate mRNA expression of FOXP3, Il17, Il17f, and Rorc. For differentiating TH17 or iTreg cells, cells were collected on day 2.5 or at the indicated time for mRNA expression analysis. The expression was normalized to β-actin.
(In qPCR the cycle at which signal appears reflects the starting amount.)

Data set [6] relates to FOXP3, Il17, Il17f, and Rorc mRNA in TH17 cells. Description: mRNA expression analysis by qRT-PCR in TH17 cells. The format is cell-based, mouse. The settings on record: normalized to β-actin. On the procedure: as §2
A further data set has as its target T1, Got1 (Mus musculus, UniProt P05201).
T1 construct: Got1 was knocked down in differentiating TH17 cells with retrovirus containing GFP and shRNA against Got1; endogenous in cells; host or cells: primary mouse CD4 naive T cells differentiated under TH17 conditions
Description: Retroviral shRNA knockdown of Got1 in differentiating TH17 cells, intracellular staining of FOXP3 and IL-17. The format is cell-based. The settings on record: sorted GFP+ cells, TH17 condition, day 6; versus empty vector or GFP− cells. As to the method:
(§3) Short hairpin RNAs (ShRNAs) (synthesized DNA oligos), after annealing, were cloned into PMKO.1-GFP retrovirus vector. The plasmids and pCL-ECO (1:1) were transfected into 293T cells with Fugene® HD4 (Promega). The medium was changed 6 hours after transfection, and the cells were further cultured for 48-72 hours. The supernatant was then collected and filtered using […]. The supernatant containing the viruses was added into pre-activated CD4+ T cells (20 hours after initial plating). The cells were spin-infected at 1000 g for 2 hours and cultured in incubator for another 2 hours. The cells were washed and cultured under TH17 conditions for an additional 4 days. New medium was added if necessary. At day 5, the cells were collected for sorting GFP+ cells and GFP− cells. Sorted cells were further cultured until day 6, and re-stimulated for intracellular staining or mRNA analysis, as described above.

Another data set has as its system IDH1 and IDH2. As to the kind of experiment: Retroviral shRNA knockdown of IDH1 and/or IDH2 in T cells under TH17 condition, intracellular staining of IL-17 and FOXP3. The settings on record: sorted GFP+ cells cultured under TH17 condition. The format is cell-based, mouse. On the procedure: as §3
2-HG, which was originally identified in cancer cells harboring isocitrate dehydrogenase (IDH) 1/2 mutation, is also known to be produced via wild-type IDH1 and IDH2 reactions as well. Among all the dehydrogenases examined in this study, only IDH1 and 2 are highly expressed in differentiating TH17 cells (FIGS. 10a, 10d). […] GFP+ cells and GFP− cells were sorted and analyzed by intracellular staining of IL-17 and FOXP3.

The next data set relates to IDH1 and/or IDH2 mRNA. Description: mRNA expression of IDH1 and IDH2 in shRNA-infected GFP+ cells. The format is cell-based, mouse. The following applies: GFP+ cells re-stimulated with anti-CD3 and anti-CD28; normalized to β-actin. As to the method:
as §2
as §3, with “Sorted cells were further cultured until day 6, and re-stimulated for intracellular staining or mRNA analysis, as described above.” left out

Where [7] appears, read: re-stimulated with anti-CD3 and anti-CD28 for 5 hours.

T1 sequence (P05201 whole entry): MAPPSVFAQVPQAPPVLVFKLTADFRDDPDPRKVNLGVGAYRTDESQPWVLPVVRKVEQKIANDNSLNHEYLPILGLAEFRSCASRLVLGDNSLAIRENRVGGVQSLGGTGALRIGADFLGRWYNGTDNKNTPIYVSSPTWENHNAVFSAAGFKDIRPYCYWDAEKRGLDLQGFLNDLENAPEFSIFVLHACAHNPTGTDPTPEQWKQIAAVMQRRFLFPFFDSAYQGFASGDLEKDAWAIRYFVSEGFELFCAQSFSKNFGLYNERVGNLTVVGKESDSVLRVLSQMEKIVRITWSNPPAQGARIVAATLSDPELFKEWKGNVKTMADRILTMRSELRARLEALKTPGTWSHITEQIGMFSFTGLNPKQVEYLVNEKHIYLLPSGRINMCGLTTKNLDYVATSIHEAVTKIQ

`COC(=O)CC[C@@H](O)C(=O)OC` [Dimethyl R-2-HG, (R)-dimethyl 2-hydroxyglutarate]: the “FOXP3 expression under iTreg condition” value in data set [1] (in the absence of AOA, analyzed on day 5) is recorded as “inhibited FOXP3 expression”. Moreover, the “reversal of the enhancing effect of AOA on iTreg cell differentiation” value in data set [1] is listed as “reversed its enhancing effect on iTreg differentiation”. The “methylation level of FOXP3 promoter and its intronic CpG island” value in data set [2] and in data set [4] was “dramatically increase methylation level” in each case. For the same compound, the “direct effect on TH17 cell differentiation (IL-17/IL-17F and FOXP3 expression)” value in [3] (in the absence of AOA, exogenously added dimethyl metabolite) was “directly promoted TH17 cell differentiation by up-regulating IL-17/IL-17F expression and down-regulating FOXP3 expression in a dose-dependent manner”. Also, the “rescue of the inhibitory effect of AOA on TH17 cell differentiation” value in data set [3] is “rescued the inhibitory effect of AOA on TH17 differentiation”. Also, the “FOXP3 mRNA expression” value in [5] and in data set [6] was “suppressed FOXP3 mRNA expression” in each case. Moreover, in data set [6] (setting [7]), the “Il17/Il17f mRNA level” value is recorded as “increased Il17/Il17f mRNA”. Besides, the “Rorc mRNA level” value in [6] (setting [7]) was “did not affect Rorc mRNA”.

As to `COC(=O)CCC(=O)C(=O)OC` [dimethyl-α-KG], the “reversal of the enhancing effect of AOA on iTreg cell differentiation” value in data set [1] is listed as “reversed its enhancing effect on iTreg differentiation”. The “rescue of the inhibitory effect of AOA on TH17 cell differentiation” value in data set [3] is “rescued the inhibitory effect of AOA on TH17 differentiation”.

For “GOT1-1: shRNA targeting GOT1 (SEQ ID NO: 47) in PMKO.1-GFP retrovirus vector (CCGGCCACATGAGAAGACGTTTCTTCTCGAGAAGAAACGTCTTCTCATGTGGTTTTTG)”, in the data set with Got1, the “percentage of IL17+ cells” value is listed as “reduced” and the “proportion of FOXP3+ cells” value is listed as “reciprocally increased”.

“GOT1-2: shRNA targeting GOT1 (SEQ ID NO: 48) in PMKO.1-GFP retrovirus vector (CCGGGTCGAACAGAAGATTGCTAATCTCGAGATTAGCAATCTTCTGTTCGACTTTTTG)”: in the data set with Got1, the “percentage of IL17+ cells” value is “reduced” and the “proportion of FOXP3+ cells” value is “reciprocally increased”.

“shRNA against IDH1: shRNA targeting IDH1 (SEQ ID NO: 49) in PMKO.1-GFP retrovirus vector (CCGGCCTGGGCTTAGAATGAGTCTTCTCGAGAAGACTCATTCTAAGCCCAGGTTTTTG)”: the “reduction of the percentage of IL-17 producing cells” value in the data set with IDH1 and IDH2 is given as “approximately 30%”. In addition, the “mRNA expression of IDH1 and/or IDH2” value in the data set with IDH1 and/or IDH2 mRNA is given as “efficiently suppressed the mRNA expression”.

Turning to “shRNA against IDH2: shRNA targeting IDH2 (SEQ ID NO: 50) in PMKO.1-GFP retrovirus vector (CCGGGAAGAGTTCAAGCTGAAGAAACTCGAGTTTCTTCAGCTTGAACTCTTCTTTTTG)”, the “reduction of the percentage of IL-17 producing cells” value with IDH1 and IDH2 is on record as “approximately 30%”. Also, in the data set on IDH1 and/or IDH2 mRNA, the “mRNA expression of IDH1 and/or IDH2” value is reported as “efficiently suppressed the mRNA expression”.
